This is an account of results in patent US12227500B2, “Substituted pyrrolo[2,3-b]pyridines for suppressing toxic endoplasmic reticulum stress” (THE TRUSTEES OF COLUMBIA UNIVERSITY IN THE CITY OF NEW YORK, priority 2018, dated 2025).

Like-named read-outs stand apart in the source and are kept apart here.

Holding throughout (experiment): Radiolabeled ATP kinase assay, panel of 60 kinases (Table S5)
Common to all, as to type: biochemical

The target of assay [1] is T1, panel of 60 human kinases (Homo sapiens, UniProt P49840).
T1 construct: purchased Reaction Biology Corp
Conditions: GSK3a; 0.1 μM; 10 μM ATP; read-out: % Enzyme Activity (relative to DSMO controls). Put shortly: (§1)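 Cell-free radiolabeled-ATP kinase assays across a panel of 60 kinases; each compound tested at 0.1 μM and 0.5 μM for inhibition.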

Assay [2] deals with T2, panel of 60 human kinases (Homo sapiens, UniProt P53779).
T2 construct: purchased Reaction Biology Corp
Conditions: JNK3; 0.1 μM; 10 μM ATP; read-out: % Enzyme Activity (relative to DSMO controls). Put shortly:
as §1

Assay [3] deals with T3, panel of 60 human kinases (Homo sapiens, UniProt Q9UQB9).
T3 construct: purchased Reaction Biology Corp
T3 sequence (Q9UQB9 1-309): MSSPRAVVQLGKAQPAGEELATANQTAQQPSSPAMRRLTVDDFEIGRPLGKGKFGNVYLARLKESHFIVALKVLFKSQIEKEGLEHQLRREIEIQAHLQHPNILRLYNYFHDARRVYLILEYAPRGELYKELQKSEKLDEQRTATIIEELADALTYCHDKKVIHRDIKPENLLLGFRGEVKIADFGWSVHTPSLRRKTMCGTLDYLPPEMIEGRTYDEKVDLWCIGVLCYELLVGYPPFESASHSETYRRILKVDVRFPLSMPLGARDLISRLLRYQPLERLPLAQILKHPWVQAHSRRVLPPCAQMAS
Conditions: Aurora C; 0.1 μM; 10 μM ATP; read-out: % Enzyme Activity (relative to DSMO controls). Summed up: as §1

Assay [4] deals with T4, panel of 60 human kinases (Homo sapiens, UniProt P35916).
T4 construct: purchased Reaction Biology Corp
As to conditions: FLT4/VEGFR3; 0.1 μM; 10 μM ATP; read-out: % Enzyme Activity (relative to DSMO controls). Put shortly:
as §1

In assay [5] the target is T5, panel of 60 human kinases (Homo sapiens, UniProt P50750).
T5 construct: purchased Reaction Biology Corp
Conditions: 0.1 μM, 10 μM ATP, read-out: % Enzyme Activity (relative to DSMO controls). Summed up:
as §1

For assay [6], the target named is T6, panel of 60 human kinases (Homo sapiens, UniProt P11802).
T6 construct: purchased Reaction Biology Corp
As to conditions: 0.1 μM, 10 μM ATP, read-out: % Enzyme Activity (relative to DSMO controls). Put shortly:
as §1

Assay [7] has as its target T7, panel of 60 human kinases (Homo sapiens, UniProt Q13627).
T7 construct: purchased Reaction Biology Corp
As to conditions: DYRK/RK1A; 0.1 μM; 10 μM ATP; read-out: % Enzyme Activity (relative to DSMO controls). Put shortly: as §1

Assay [8] deals with T8, panel of 60 human kinases (Homo sapiens, UniProt O94806).
T8 construct: purchased Reaction Biology Corp
T8 sequence (O94806 1-890): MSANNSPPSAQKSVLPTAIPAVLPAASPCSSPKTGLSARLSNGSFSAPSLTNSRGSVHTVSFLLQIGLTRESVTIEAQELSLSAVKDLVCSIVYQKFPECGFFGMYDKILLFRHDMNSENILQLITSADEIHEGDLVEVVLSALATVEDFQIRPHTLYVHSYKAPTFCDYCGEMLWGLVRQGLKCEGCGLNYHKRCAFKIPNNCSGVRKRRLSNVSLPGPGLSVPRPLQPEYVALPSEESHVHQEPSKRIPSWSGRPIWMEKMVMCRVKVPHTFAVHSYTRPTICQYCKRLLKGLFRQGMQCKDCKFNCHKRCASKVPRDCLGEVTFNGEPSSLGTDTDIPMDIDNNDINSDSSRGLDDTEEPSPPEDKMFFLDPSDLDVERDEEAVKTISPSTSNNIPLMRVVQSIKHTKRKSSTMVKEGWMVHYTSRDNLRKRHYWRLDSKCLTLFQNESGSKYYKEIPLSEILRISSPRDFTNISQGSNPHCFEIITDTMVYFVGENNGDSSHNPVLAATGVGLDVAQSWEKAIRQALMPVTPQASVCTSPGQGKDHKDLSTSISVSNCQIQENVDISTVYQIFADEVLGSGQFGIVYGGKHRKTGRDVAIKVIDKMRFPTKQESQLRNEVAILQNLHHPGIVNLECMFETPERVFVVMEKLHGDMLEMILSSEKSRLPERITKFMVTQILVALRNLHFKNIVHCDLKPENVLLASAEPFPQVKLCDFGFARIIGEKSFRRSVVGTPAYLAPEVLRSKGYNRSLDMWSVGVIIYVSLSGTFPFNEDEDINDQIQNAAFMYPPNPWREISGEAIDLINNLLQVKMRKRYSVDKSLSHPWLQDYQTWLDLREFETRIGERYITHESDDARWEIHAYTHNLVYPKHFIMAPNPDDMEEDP
Conditions: PKCnu/PRKD3; 0.1 μM; 10 μM ATP; read-out: % Enzyme Activity (relative to DSMO controls). Summed up:
as §1

T5 sequence (P50750 whole entry): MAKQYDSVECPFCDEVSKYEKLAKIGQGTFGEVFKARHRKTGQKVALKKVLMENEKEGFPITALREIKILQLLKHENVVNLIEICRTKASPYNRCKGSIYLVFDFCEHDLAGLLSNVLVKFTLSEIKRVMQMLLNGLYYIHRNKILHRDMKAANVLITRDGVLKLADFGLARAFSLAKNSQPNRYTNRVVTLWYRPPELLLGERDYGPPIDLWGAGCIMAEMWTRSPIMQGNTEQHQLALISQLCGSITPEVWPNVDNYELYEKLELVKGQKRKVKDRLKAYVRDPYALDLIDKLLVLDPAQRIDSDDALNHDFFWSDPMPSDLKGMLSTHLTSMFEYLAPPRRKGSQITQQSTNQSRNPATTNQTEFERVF
T6 sequence (P11802 whole entry): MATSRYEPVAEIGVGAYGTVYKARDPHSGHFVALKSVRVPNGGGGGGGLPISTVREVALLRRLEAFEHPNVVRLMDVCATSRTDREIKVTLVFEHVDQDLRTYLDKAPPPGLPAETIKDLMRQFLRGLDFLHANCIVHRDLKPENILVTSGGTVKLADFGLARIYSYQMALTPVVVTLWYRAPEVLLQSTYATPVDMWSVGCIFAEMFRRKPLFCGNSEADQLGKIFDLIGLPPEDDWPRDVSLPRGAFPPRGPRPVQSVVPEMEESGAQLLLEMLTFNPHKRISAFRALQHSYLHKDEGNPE
T2 sequence (P53779 whole entry): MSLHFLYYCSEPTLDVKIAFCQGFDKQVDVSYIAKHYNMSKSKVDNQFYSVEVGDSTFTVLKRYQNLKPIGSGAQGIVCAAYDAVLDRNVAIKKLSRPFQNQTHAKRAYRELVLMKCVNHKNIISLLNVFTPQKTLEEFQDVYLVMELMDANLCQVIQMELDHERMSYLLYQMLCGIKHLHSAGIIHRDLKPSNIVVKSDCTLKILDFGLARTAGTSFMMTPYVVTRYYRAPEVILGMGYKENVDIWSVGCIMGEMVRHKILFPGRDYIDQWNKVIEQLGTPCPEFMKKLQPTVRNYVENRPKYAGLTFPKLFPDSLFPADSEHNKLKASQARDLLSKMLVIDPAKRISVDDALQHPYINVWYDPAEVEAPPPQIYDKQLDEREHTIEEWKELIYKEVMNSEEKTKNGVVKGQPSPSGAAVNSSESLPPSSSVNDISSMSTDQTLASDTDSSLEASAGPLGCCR
T1 sequence (P49840 whole entry): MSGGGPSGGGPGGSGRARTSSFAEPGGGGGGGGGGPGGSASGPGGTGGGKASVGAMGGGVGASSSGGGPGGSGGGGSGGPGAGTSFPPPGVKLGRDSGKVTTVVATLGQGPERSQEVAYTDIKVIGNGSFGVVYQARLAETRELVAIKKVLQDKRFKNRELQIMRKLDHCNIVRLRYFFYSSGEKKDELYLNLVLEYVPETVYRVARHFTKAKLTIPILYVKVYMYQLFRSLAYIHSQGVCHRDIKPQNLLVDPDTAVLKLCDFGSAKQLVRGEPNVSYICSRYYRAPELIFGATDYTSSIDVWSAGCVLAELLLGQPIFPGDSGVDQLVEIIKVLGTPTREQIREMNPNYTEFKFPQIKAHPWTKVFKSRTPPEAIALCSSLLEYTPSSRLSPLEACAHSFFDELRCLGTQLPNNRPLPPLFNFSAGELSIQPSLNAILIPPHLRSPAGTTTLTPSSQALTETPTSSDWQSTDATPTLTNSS
T4 sequence (P35916 25-1363): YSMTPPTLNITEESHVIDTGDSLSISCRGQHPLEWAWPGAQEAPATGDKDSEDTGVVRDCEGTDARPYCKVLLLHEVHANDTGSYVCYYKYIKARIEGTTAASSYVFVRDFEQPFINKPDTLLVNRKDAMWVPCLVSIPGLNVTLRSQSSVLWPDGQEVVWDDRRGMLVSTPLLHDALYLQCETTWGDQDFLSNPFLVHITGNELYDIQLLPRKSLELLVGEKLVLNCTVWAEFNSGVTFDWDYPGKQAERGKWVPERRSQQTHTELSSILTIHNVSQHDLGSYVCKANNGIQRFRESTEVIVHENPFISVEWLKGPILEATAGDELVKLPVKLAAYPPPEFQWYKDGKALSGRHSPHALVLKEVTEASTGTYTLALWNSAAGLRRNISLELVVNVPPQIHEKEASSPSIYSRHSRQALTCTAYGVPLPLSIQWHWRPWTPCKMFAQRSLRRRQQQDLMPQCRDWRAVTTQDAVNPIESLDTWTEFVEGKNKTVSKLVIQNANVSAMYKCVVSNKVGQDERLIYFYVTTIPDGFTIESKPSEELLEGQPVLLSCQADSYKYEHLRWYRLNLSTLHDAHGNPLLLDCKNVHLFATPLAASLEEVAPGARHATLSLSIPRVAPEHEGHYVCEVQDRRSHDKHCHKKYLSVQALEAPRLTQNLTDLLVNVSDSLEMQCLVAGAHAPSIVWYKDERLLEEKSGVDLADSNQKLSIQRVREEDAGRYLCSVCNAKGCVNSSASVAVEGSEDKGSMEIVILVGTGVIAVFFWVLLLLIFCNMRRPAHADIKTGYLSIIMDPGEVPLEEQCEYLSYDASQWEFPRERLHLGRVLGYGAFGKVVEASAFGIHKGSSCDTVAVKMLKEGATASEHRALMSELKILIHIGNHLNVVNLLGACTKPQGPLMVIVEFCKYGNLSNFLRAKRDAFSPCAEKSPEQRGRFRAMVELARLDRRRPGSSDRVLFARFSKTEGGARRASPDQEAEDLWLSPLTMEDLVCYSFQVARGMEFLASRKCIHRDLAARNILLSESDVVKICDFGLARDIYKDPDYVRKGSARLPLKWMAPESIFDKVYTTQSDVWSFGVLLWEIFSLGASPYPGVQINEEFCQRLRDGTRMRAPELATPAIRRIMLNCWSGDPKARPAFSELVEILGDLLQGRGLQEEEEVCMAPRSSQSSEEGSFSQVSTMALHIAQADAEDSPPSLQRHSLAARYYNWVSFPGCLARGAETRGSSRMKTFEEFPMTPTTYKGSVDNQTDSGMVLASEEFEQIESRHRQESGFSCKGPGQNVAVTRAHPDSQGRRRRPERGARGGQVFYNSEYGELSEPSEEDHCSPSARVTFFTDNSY

`CN1CCN(Cc2ccc(-c3cnc4[nH]cc(-c5ccoc5)c4c3)cc2)CC1` [Compound 7w, 3-(Furan-3-yl)-5-(4-((4-methylpiperazin-1-yl)methyl)phenyl)-1H-pyrrolo[2,3-b]pyridine]: the remaining activity at 0.1 µM was 75.3% in assay [1]; 113% in assay [2]; 94.3% in assay [3]; 64.6% in assay [4]; 97.8% in assay [5] (CDK9/cyclin K); 96.1% in assay [5] (CDK9/cyclin T1). For the same molecule, the remaining activity at 0.1 µM in assay [5] (CDK9/cyclin T2) was found to be 65.6%; in assay [6] (CDK4/cyclin D1), 73.4%; in assay [6] (CDK4/cyclin D3), 72.2%; in assay [7], 71.2%; in assay [8], 32.8%.
